We go through 3 molecules from patent US7868011B2 (General Atomics, priority 2003, dated 2011).

Structures are written as SMILES.

The target of data set [1] is SAH hydrolase (Rattus norvegicus, UniProt P10760). As to conditions: cited from earlier work.
Data set [2] deals with intracellular AdoHcy hydrolase (Rattus norvegicus, UniProt P10760). The note with it: intracellular enzyme; cited from earlier work.
Data set [3] deals with Mouse splenic lymphocytes. Briefly: MTT cytotoxicity assay of the splenic lymphocytes. In kind it is cell-based. As to conditions: 0.1-10 μmol/L, two days of culture. How it is done:
Cytotoxicity was assessed with MTT assay. Mouse splenic lymphocytes were incubated in a 96-well plate at 9×10^4 cells/180 μl/well in a humidified CO2 incubator at 37° C. for 48 hours in the presence or absence of various concentrations of DZ2002. Fifteen (15) μl of 5 mg/ml of MTT was pulsed 4 h prior to end of the culture […], and then 80 μl solvent (10% SDS, 50% N,N-dimethy formamide, PH7.2) was added. Incubate for 7 h and read OD590 at a microplate reader (Bio-rad Model 550 Japan).

In data set [4] the test system is TG induced peritoneal macrophages. The experiment in a line: cytokine production from TG induced peritoneal macrophages (ELISA). Format: cell-based, BALB/C mice. As to conditions: IFN-γ and LPS 24 h, 0.1-10 μmol/L. How it is done:
Peritoneal exudate cells were induced in BALB/C mice by an intraperitoneal injection of 0.5 ml of 3% TG. After 4 days, the peritoneal exudates cells were harvested by sterile lavage.
Murine peritoneal exudate cells (6.25×10^5) were cultured in 24-well plates in a volume of 1 ml/well for 2 hours. In adherent cells were washed by ice cold RPMI 1640 and adherent cells were culture in a volume of 2 ml/well in the presence of IFN-γ (2.5 ng/ml) and LPS (1 μg/ml) in the presence or absence of various concentrations of DZ2002. After 24 h, cell-free supernatant was collected and frozen at −20° C. The concentrations of IL-12p40, IL-12p70, IL-10 and TNF-α were determined by ELISA.
Cytokines produced by peritoneal macrophages were assessed following a 24-h incubation with IFN-γ at 25 U/ml and LPS at 1 μg/ml. Resident peritoneal cells produce low levers of cytokines except for some IL-10 with incubated with IFN-γ and LPS (data not shown). As for TG induced peritoneal macrophages, DZ2002 inhibited IL-12P40 and TNF-α release, but have no effect on IL-10 production in the dose of 0.1-10 μmol/L (FIG. 5).
A general note: ELISA stands for enzyme-linked immunosorbent assay.

Data set [5] has as its system primary antibody production in response to SRBC. The experiment in a line: Quantitative hemolysis of sheep red blood cells (QHS) assay. As to conditions: 7-day intraperitoneal injection. In kind it is in vivo, Balb/c mice. On the procedure:
Female Babl/c mice were immunized by intraperitoneal injection with 0.2 ml of 16.7% of SRBC on day 4. Vehicle, Dexamethasone and DZ2002 were administrated on each group (n=6) by intraperitoneal injection on 7 consecutive days of 1-7. On day 8, mice were sacrificed and made a mixed suspension of spleen cells of 2×10^6 cells/ml. 1 ml of cell suspension was incubated with 1 ml of 0.5% SRBC and 1 ml of 1:10 dilution of guinea pig complement for 1 h at 37° C., then centrifuged (3 min, 3000 g) and determined the supernatant hemolysis at 413 nm, according to Simpson et al., J. Immunol. Methods., 21(1-2):159-65. (1978) with some modifications. Each group was triplicated.

Data set [6] concerns C57BL/6 spleen cells stimulated by mitomycin-treated Balb/c spleen cells. The experiment in a line: Mixed lymphocyte reaction (MLR) proliferation assay. Format: cell-based, mouse. As to conditions: 3-day culture. How it is done:
Balb/c mouse spleen cells were prepared in 10^7 cells/ml suspension, cultured 2 h with 50 μg/ml of mitomycin. Then cells were washed and cultured together with fresh C57/B6 mice splenocytes equally in a final concentration of 1.0×10^6 cells/ml in the presence or absence of various concentrations of DZ2002. After 48 hour incubation, cells were pulsed with 0.5 μCi/well of [^3H]-thymidine and cultured for another 24 hours. The cells were then harvested onto glass fiber filters and the incorporated radioactivity was counted using a Beta Scintillator (MicroBeta Trilux, PerkinElmer Life Sciences).

Data set [7] relates to lupus-prone MRL-Fas^lpr mice. The experiment in a line: survival of lupus-prone MRL-Fas lpr mice. Format: in vivo, mouse. The note with it: 50 mg/kg/day i.p. How it is done: MRL-Fas^lpr female mice were provided by The Jackson Laboratory (Bar Harbor, Me.). The mice were housed in specific pathogen-free (SPF) conditions with room temperature of 24±2° C., 12 hr light/dark cycle, and provided with sterile food and water ad libitum. Starting at approximately 6 weeks of age, MRL-Fas^lpr mice (n=11-13/group) were dosed i.p. every day with either DZ2002 (50 mg/kg/day) or with vehicle (0.4% DMSO/PBS) for ˜9 months and followed for survival. Mouse survival data were analyzed by the Kaplan-Meir method with comparison by the log-rank test; p<0.05 was considered to be significant.

Sequence of SAH hydrolase (P10760 whole entry): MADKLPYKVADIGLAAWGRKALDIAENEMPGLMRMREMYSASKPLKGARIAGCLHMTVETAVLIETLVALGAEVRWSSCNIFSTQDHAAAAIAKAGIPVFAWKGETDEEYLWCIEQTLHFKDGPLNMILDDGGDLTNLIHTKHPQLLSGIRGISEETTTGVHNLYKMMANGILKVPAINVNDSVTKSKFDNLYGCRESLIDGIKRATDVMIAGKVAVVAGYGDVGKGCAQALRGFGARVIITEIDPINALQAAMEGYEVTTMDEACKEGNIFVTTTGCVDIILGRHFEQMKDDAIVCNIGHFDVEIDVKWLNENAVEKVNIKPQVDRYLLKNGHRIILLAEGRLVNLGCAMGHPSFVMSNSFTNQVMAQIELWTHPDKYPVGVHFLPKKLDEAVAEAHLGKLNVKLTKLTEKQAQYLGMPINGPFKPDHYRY
Sequence of intracellular AdoHcy hydrolase (P10760 whole entry): as above

Turning to `Nc1ncnc2c1ncn2C[C@H](O)CO` [(S)-DHPA, (S)-9-(2,3-dihydroxypropyl)adenine], in data set [1] (isolated enzyme), the “type of inhibition of isolated AdoHcy hydrolase” value is “reversible inhibitor”. In addition, the Ki in data set [1] (read-out: Ki value against SAH hydrolase) is 3.5 µM. Also, in data set [2], the “type of inhibition of intracellular AdoHcy hydrolase” value is reported as “irreversible inhibitor”.

In the case of `COC(=O)C(O)CCn1cnc2c(N)ncnc21` (stereo not drawn) [DZ2002, Methyl 4-(Adenin-9-yl)-2-hydroxybutanoate], the “cytotoxicity to spleen cells (MTT, OD)” value in data set [3] was “no cytotoxicity”. Moreover, in data set [4], the IL-10 production entry is given as “no effect”. In addition, the results for the “inhibition of QHS” value in data set [5] (0.08 mg/kg) and in data set [5] (2 mg/kg) were 24.5% and 18.4%, respectively. The entries for the “suppression of MLR” value in data set [6] (0.1 μmol/L), in data set [6] (1 μmol/L) and in data set [6] (10 μmol/L) were 40.2%, 36.9% and 42.3%, respectively. For the same molecule, the “age at which extension in survival was first observed” value in data set [7] is listed as “approximately 160 days of age”.

On to `C[C@@H]1C[C@H]2[C@@H]3CCC4=CC(=O)C=C[C@]4(C)[C@@]3(F)[C@@H](O)C[C@]2(C)[C@@]1(O)C(=O)CO` [Dethamethasone, reference compound], for which the “inhibition of QHS” value in data set [5] (5 mg/kg) was found to be 38.1%.

A word on the Ki: it is the dissociation constant of the complex between target and ligand, obtained from inhibition or displacement.
